Columns and labels:
S. pneumoniae D39V [1] = test: fitness (endpoint OD595 vs no drug) (fraction); higher = more growth
Summary of the method: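 In 384-well plates at 37 °C, cultures began at OD595 0.01 in 30 µl, with 55 µl used for S. pneumoniae. OD595 readings every 30 min for 14 h were corrected by the first reading. Fitness divides the stationary-phase transition optical density by the robust mean of no-drug control wells. The result is capped at 1.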

S. aureus Newman = test: Bliss interaction score (quartile over a dose matrix) (fitness difference); higher = more antagonism (negative = synergy)
Summary of the method: (§1)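 Each OD595 reading at entry into stationary phase was scaled to the robust mean of the untreated wells on its plate, with a ceiling of 1. These ratios define fitness, and single-drug fitness was inferred from combinations. The Bliss score compares observed fitness with the product-based expectation and is reported as quartiles across all replicate types, technical, biological and donor/recipient.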

S. aureus DSM 20231 = test: as above
Summary of the method: as §1

B. subtilis 168 = test: as above
Summary of the method: as §1

S. pneumoniae D39V [2] = test: as above
Summary of the method: as §1
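Throughout, for Bliss interaction score (quartile over a dose matrix): first quartile when negative (synergy) and third quartile when positive (antagonism).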
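Throughout, for fitness (endpoint OD595 vs no drug): OD595 on entry to stationary phase over no-drug wells; at most 1.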

CC[C@H]1OC(=O)[C@H](C)[C@@H](O[C@H]2C[C@@](C)(OC)[C@@H](O)[C@H](C)O2)[C@H](C)[C@@H](O[C@@H]2O[C@H](C)C[C@H](N(C)C)[C@H]2O)[C@](C)(OC)C[C@@H](C)C(=O)[C@H](C)[C@@H](O)[C@]1(C)O [Clarithromycin] + Cc1ncc([N+](=O)[O-])n1CCO [Metronidazole]
fitness, S. pneumoniae D39V [1], one replicate
Settings | first compound 0.007812 µg/mL | first compound 0.01562 µg/mL | first compound 0.03125 µg/mL
partner 1.25 µg/mL | 0.927 | 0.903 | 0.669
partner 2.5 µg/mL | 0.926 | 0.891 | 0.692
partner 5 µg/mL | 0.917 | 0.856 | 0.668

fitness, S. pneumoniae D39V [1]
Settings | first compound 0.0625 µg/mL | first compound 0.07 µg/mL | first compound 0.125 µg/mL | first compound 0.14 µg/mL | first compound 0.25 µg/mL | first compound 0.28 µg/mL
partner 1.073 µg/mL | 0.729 | – | 0.542 | – | 0.337 | –
partner 1.25 µg/mL | – | 0.149 | – | 0.0801 | – | 0.0663
partner 2.145 µg/mL | 0.734 | – | 0.598 | – | 0.393 | –
partner 2.5 µg/mL | – | 0.168 | – | 0.0889 | – | 0.101
partner 4.29 µg/mL | 0.688 | – | 0.554 | – | 0.257 | –
partner 5 µg/mL | – | 0.178 | – | 0.114 | – | 0.0828

Settings | Bliss interaction score
B. subtilis 168 | 0.103
S. aureus DSM 20231 | 0.118
S. aureus Newman | -0.0393
S. pneumoniae D39V [2] | 0.106

CC[C@H]1OC(=O)[C@H](C)[C@@H](O[C@H]2C[C@@](C)(OC)[C@@H](O)[C@H](C)O2)[C@H](C)[C@@H](O[C@@H]2O[C@H](C)C[C@H](N(C)C)[C@H]2O)[C@](C)(OC)C[C@@H](C)C(=O)[C@H](C)[C@@H](O)[C@]1(C)O [Clarithromycin] + CCN(CC)CCOC(=O)c1ccc(N)cc1 [Procaine]
fitness, S. pneumoniae D39V [1], one replicate
Settings | first compound 0.007812 µg/mL | first compound 0.01562 µg/mL | first compound 0.03125 µg/mL | first compound 0.0625 µg/mL | first compound 0.125 µg/mL | first compound 0.25 µg/mL
partner 85.5 µg/mL | 0.962 | 0.921 | 0.691 | 0.659 | 0.251 | 0.102
partner 171 µg/mL | 0.983 | 0.903 | 0.702 | 0.77 | 0.284 | 0.169
partner 342 µg/mL | 0.993 | 0.923 | 0.719 | 0.595 | 0.464 | 0.33

fitness, S. pneumoniae D39V [1]
Settings | first compound 0.07 µg/mL | first compound 0.14 µg/mL | first compound 0.28 µg/mL
partner 85.5 µg/mL | 0.125 | 0.0737 | 0.0531
partner 171 µg/mL | 0.141 | 0.065 | 0.0466
partner 342 µg/mL | 0.141 | 0.0668 | 0.061

Settings | Bliss interaction score
B. subtilis 168 | 0.0395
S. aureus DSM 20231 | 0.0493
S. aureus Newman | 0.0711
S. pneumoniae D39V [2] | 0.0576

CCC[C@@H]1C[C@@H](C(=O)N[C@@H]([C@H]2O[C@H](SC)[C@H](O)[C@@H](O)[C@H]2O)[C@@H](C)O)N(C)C1 [Lincomycin] + O=C1CN(/N=C/c2ccc([N+](=O)[O-])o2)C(=O)N1 [Nitrofurantoin]
fitness, S. pneumoniae D39V [1]
Settings | first compound 0.2 µg/mL | first compound 0.215 µg/mL | first compound 0.4 µg/mL | first compound 0.43 µg/mL | first compound 0.8 µg/mL | first compound 0.86 µg/mL
partner 1.285 µg/mL | 0.718 | – | 0.677 | – | 0.281 | –
partner 2 µg/mL | – | 0.753 | – | 0.681 | – | 0.392
partner 2.57 µg/mL | 0.775 | – | 0.716 | – | 0.266 | –
partner 4 µg/mL | – | 0.763 | – | 0.7 | – | 0.358
partner 8 µg/mL | – | 0.711 | – | 0.381 | – | 0.141

S. pneumoniae D39V [1], partner 5.14 µg/mL, one replicate
Settings | fitness
first compound 0.2 µg/mL | 0.768
first compound 0.4 µg/mL | 0.633
first compound 0.8 µg/mL | 0.189

Settings | Bliss interaction score
B. subtilis 168 | 0.163
S. aureus DSM 20231 | -0.0943
S. aureus Newman | -0.101
S. pneumoniae D39V [2] | -0.118

CC[C@H]1OC(=O)[C@H](C)[C@@H](O[C@H]2C[C@@](C)(OC)[C@@H](O)[C@H](C)O2)[C@H](C)[C@@H](O[C@@H]2O[C@H](C)C[C@H](N(C)C)[C@H]2O)[C@](C)(OC)C[C@@H](C)C(=O)[C@H](C)[C@@H](O)[C@]1(C)O [Clarithromycin] + C[C@H]1c2cccc(O)c2C(=O)C2=C(O)[C@]3(O)C(=O)C(C(N)=O)=C(O)[C@@H](N(C)C)[C@@H]3[C@@H](O)[C@@H]21 [Doxycycline]
fitness, S. pneumoniae D39V [1], one replicate
Settings | first compound 0.007812 µg/mL | first compound 0.01562 µg/mL | first compound 0.03125 µg/mL | first compound 0.0625 µg/mL | first compound 0.125 µg/mL | first compound 0.25 µg/mL
partner 0.003875 µg/mL | – | – | – | 0.674 | 0.375 | 0.0974
partner 0.00775 µg/mL | – | – | – | 0.736 | 0.317 | 0.115
partner 0.0155 µg/mL | 0.731 | 0.708 | 0.61 | – | – | –
partner 0.031 µg/mL | 0.681 | 0.669 | 0.609 | 0.464 | 0.143 | 0.101
partner 0.062 µg/mL | 0.587 | 0.482 | 0.266 | 0.267 | 0.129 | 0.0712

fitness, S. pneumoniae D39V [1]
Settings | first compound 0.0625 µg/mL | first compound 0.07 µg/mL | first compound 0.125 µg/mL | first compound 0.14 µg/mL | first compound 0.25 µg/mL | first compound 0.28 µg/mL
partner 0.0155 µg/mL | 0.574 | 0.0409 | 0.223 | 0.0521 | 0.143 | 0.0358
partner 0.031 µg/mL | – | 0.0283 | – | 0.0438 | – | 0.0338
partner 0.062 µg/mL | – | 0.0302 | – | 0.0541 | – | 0.0267

Settings | Bliss interaction score
B. subtilis 168 | -0.324
S. aureus DSM 20231 | -0.161
S. aureus Newman | -0.116
S. pneumoniae D39V [2] | -0.107

C[C@@H](O)[C@H]1C(=O)N2C(C(=O)O)=C(SCCNC=N)C[C@H]12 [Imipenem] + C/C(=C\C(=O)OCCCCCCCCC(=O)O)C[C@@H]1OC[C@H](C[C@@H]2O[C@H]2[C@@H](C)[C@H](C)O)[C@@H](O)[C@H]1O [Pseudomonic acid]
fitness, S. pneumoniae D39V [1]
Settings | first compound 0.005 µg/mL | first compound 0.0065 µg/mL | first compound 0.01 µg/mL | first compound 0.013 µg/mL | first compound 0.02 µg/mL | first compound 0.026 µg/mL
partner 0.03 µg/mL | 0.897 | 0.799 | 0.896 | 0.889 | 0.917 | 0.89
partner 0.06 µg/mL | 0.772 | – | 0.799 | 0.7 | 0.77 | 0.688
partner 0.12 µg/mL | 0.578 | 0.439 | 0.583 | 0.479 | 0.583 | 0.504

Settings | Bliss interaction score
B. subtilis 168 | 0.12
S. aureus DSM 20231 | 0.0093
S. aureus Newman | 0.0109
S. pneumoniae D39V [2] | -0.146

CC[C@H]1OC(=O)[C@H](C)[C@@H](O[C@H]2C[C@@](C)(OC)[C@@H](O)[C@H](C)O2)[C@H](C)[C@@H](O[C@@H]2O[C@H](C)C[C@H](N(C)C)[C@H]2O)[C@](C)(OC)C[C@@H](C)C(=O)[C@H](C)[C@@H](O)[C@]1(C)O [Clarithromycin] + COc1cccc2c1C(=O)c1c(O)c3c(c(O)c1C2=O)C[C@@](O)(C(=O)CO)C[C@@H]3O[C@H]1C[C@H](N)[C@H](O)[C@H](C)O1 [Doxorubicin]
fitness, S. pneumoniae D39V [1], one replicate
Settings | first compound 0.007812 µg/mL | first compound 0.01562 µg/mL | first compound 0.03125 µg/mL
partner 0.25 µg/mL | 0.866 | 0.825 | 0.633
partner 0.5 µg/mL | 0.841 | 0.798 | 0.621
partner 1 µg/mL | 0.794 | 0.777 | 0.608

fitness, S. pneumoniae D39V [1]
Settings | first compound 0.0625 µg/mL | first compound 0.07 µg/mL | first compound 0.125 µg/mL | first compound 0.14 µg/mL | first compound 0.25 µg/mL | first compound 0.28 µg/mL
partner 0.25 µg/mL | 0.457 | 0.112 | 0.277 | 0.0456 | 0.077 | 0.0403
partner 0.5 µg/mL | 0.495 | 0.106 | 0.295 | 0.0366 | 0.107 | 0.0281
partner 1 µg/mL | 0.411 | 0.103 | 0.188 | 0.0523 | 0.0684 | 0.0955

Settings | Bliss interaction score
B. subtilis 168 | 0.0718
S. aureus DSM 20231 | 0.0858
S. aureus Newman | 0.105
S. pneumoniae D39V [2] | -0.0578

CC[C@H]1OC(=O)[C@H](C)[C@@H](O[C@H]2C[C@@](C)(OC)[C@@H](O)[C@H](C)O2)[C@H](C)[C@@H](O[C@@H]2O[C@H](C)C[C@H](N(C)C)[C@H]2O)[C@](C)(OC)C[C@@H](C)C(=O)[C@H](C)[C@@H](O)[C@]1(C)O [Clarithromycin] + CN[C@@H]1[C@H](O[C@H]2[C@H](O[C@H]3[C@H](O)[C@@H](O)[C@H](N=C(N)N)[C@@H](O)[C@@H]3N=C(N)N)O[C@@H](C)[C@]2(O)C=O)O[C@@H](CO)[C@H](O)[C@H]1O [Streptomycin]
fitness, S. pneumoniae D39V [1], one replicate
Settings | first compound 0.007812 µg/mL | first compound 0.01562 µg/mL | first compound 0.03125 µg/mL | first compound 0.0625 µg/mL | first compound 0.125 µg/mL | first compound 0.25 µg/mL
partner 2 µg/mL | 0.857 | 0.802 | 0.663 | 0.68 | 0.318 | 0.129
partner 4 µg/mL | 0.866 | 0.799 | 0.694 | – | – | –
partner 8 µg/mL | 0.845 | 0.793 | 0.651 | – | – | –
partner 16 µg/mL | – | – | – | 0.478 | 0.184 | 0.0864

fitness, S. pneumoniae D39V [1]
Settings | first compound 0.0625 µg/mL | first compound 0.07 µg/mL | first compound 0.125 µg/mL | first compound 0.14 µg/mL | first compound 0.25 µg/mL | first compound 0.28 µg/mL
partner 2 µg/mL | – | 0.117 | – | 0.0741 | – | 0.0426
partner 4 µg/mL | 0.623 | 0.103 | 0.3 | 0.0646 | 0.142 | 0.0455
partner 8 µg/mL | 0.594 | 0.154 | 0.312 | 0.0691 | 0.107 | 0.0723

Settings | Bliss interaction score
B. subtilis 168 | 0.0553
S. aureus DSM 20231 | 0.0696
S. aureus Newman | -0.0521
S. pneumoniae D39V [2] | -0.0538
